Patent publication US6814966B1, “Methods for treating glaucoma” (Pharmacia Corporation, priority 2000, dated 2004)

System: retinal ganglion cells in co-cultures with glial cells
Assay: TUNEL apoptosis of retinal ganglion cells in co-cultures with glial cells under stress conditions
Type: cell-based, rat
Conditions: for decrease of rate of positive TUNEL: antibody 10 ug/ml, 1400W 2.5 uM
Description: Retinal ganglion cell cultures. Primary cultures of retinal ganglion cells were derived from newborn rat retinas using a protocol similar to that recently described^70. All experiments were performed in accordance with the ARVO Statement for the Use of Animals in Ophthalmic and Vision Research and were approved by The Animal Studies Committee of Washington University. Five to seven days old Sprague-Dawley rats were anesthetized and their eyes were enucleated. The eyes were rinsed with CO2-independent culture medium (Gibco, Grand Island, N.Y.) and retinas were mechanically dissected under a microscope. To prepare retinal cell suspensions, tissues were dissociated in Eagles's minimum essential medium containing 20 U/ml papain, 1 mM L-cystein 0.5 mM EDTA and DNase (0.005%) (Worthington, Lakewood, N.J.) at 37° C. for 40 minutes. Then, retinas were rinsed in an inhibitor solution containing Eagle's minimum essential medium, ovomucoid (0.2%) (US Biological, Swampscott, Mass.), DNAase (0.04%) and bovine serum albumin (0.1%) (Sigma, St. Louis, Mo.). At the end of treatment period, tissues were triturated through a 1 ml plastic pipette to yield a suspension of single cells. The retinal cells were spun at 400 g for 10 minutes, resuspended in Eagle's minimum essential medium containing bovine serum albumin (0.05%) and incubated in a tissue culture incubator until their immediate use for subsequent separation by immunomagnetic selection^71,72.
Immunomagnetic selection of the retinal ganglion cells was performed using magnetic, 2.8±0.2 um diameter, polystyrene beads coated with biotinylated rat monoclonal antibody against mouse IgG1 (Dynal, Oslo, Norway) in a two step process. In the first step, after washing with phosphate buffered saline solution containing 0.1% bovine serum albumin, 1×10^7 beads/ml were added to monoclonal antibody against macrophage surface antigens (100 ug/ml) (Sigma). After incubation at room temperature on a rotator for 30 minutes, beads were washed using a specially designed magnet (Dynal). […]

CC(=N)NCc1cccc(CN)c1.Cl.Cl [1400W, N-(3-(aminomethyl)benzyl)acetamidine. dihydrochloride]
decrease of rate of positive TUNEL (co-cultures under elevated hydrostatic pressure): approximately 35% | decrease of rate of positive TUNEL (co-cultures under simulated ischemia): approximately 50% | attenuation of retinal ganglion cell apoptosis (summary statement, simulated ischemia and elevated hydrostatic pressure, stressor not specified): ~50%
